This note sets out measurements from publication PMC7894860, “Molecular dynamics investigation of the interaction between Colletotrichum capsici cutinase and berberine suggested a mechanism for reduced enzyme activity” (PLoS ONE, 2021).

The target in test [1] is T1, cutinase from Colletotrichum capsici (Colletotrichum truncatum, UniProt P10951).
T1 construct: gene CUTA; purchased recombinant protein
Put plainly: turbidimetric hydrolysis assay (OD630). In kind it is biochemical. The following applies: 30°C; substrate emulsion in 25 mM potassium phosphate pH 8.0, 0.5% gum arabic.

Test [2] has as its target T1, cutinase from Colletotrichum capsici. The test is described as follows: turbidimetric ester hydrolysis assay (OD630). Type of test: biochemical. The following applies: read-out: relative activity at 500 μg/ml berberine.

Structures are written as SMILES.

T1 sequence (P10951 17-228): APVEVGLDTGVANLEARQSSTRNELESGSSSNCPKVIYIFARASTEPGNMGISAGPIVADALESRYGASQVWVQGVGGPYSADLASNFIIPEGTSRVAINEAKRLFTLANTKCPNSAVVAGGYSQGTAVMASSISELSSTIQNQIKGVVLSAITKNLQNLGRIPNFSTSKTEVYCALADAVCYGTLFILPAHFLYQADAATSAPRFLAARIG

Consider `CCCC(=O)OCC(COC(=O)CCC)OC(=O)CCC` [Tributyrin], for which the “turbidimetric hydrolysis assay (OD630)” value in test [1] is listed as “For short chain substrate tributyrin, berberine conferred slight decrease of relative activity”.
For `COc1ccc2cc3[n+](cc2c1OC)CCc1cc2c(cc1-3)OCO2` [berberine], in test [2], the activity at 500 µg/mL turned out to be 78%.
For `CCCCCCCC(=O)OCC(COC(=O)CCCCCCC)OC(=O)CCCCCCC` [Glyceryl trioctanoate], the “turbidimetric hydrolysis assay (OD630)” value in test [1] was “larger reduced enzyme activities for longer chain substrates glyceryl trioctanoate and isopropyl myristate”.
